Tests used:
Assay in all cases: radiometric filter-binding kinase assay, Kinase HotSpot
Conditions in all cases: compound 0.5 µM; ATP 10 µM
AKT3 (human) = AKT3 (human) (UniProt Q9Y243)
CSNK2A1 (human) = CSNK2A1 (human) (UniProt P68400)
CDK1 CCNB1 (human) = CDK1 CCNB1 (human) (UniProt P06493+P14635)
RPS6KA4 KD2 (human) = RPS6KA4 KD2 (human) (UniProt O75676)
ACVR1 (human) = ACVR1 (human) (UniProt Q04771)
GRK5 (human) = GRK5 (human) (UniProt P34947)
MAPK1 (human) = MAPK1 (human) (UniProt P28482)
DYRK4 (human) = DYRK4 (human) (UniProt Q9NR20)
ADRBK2 (human) = ADRBK2 (human) (UniProt P35626)
NEK6 (human) = NEK6 (human) (UniProt Q9HC98)
Sequence of NEK6 (human) (Q9HC98 whole entry, looked up): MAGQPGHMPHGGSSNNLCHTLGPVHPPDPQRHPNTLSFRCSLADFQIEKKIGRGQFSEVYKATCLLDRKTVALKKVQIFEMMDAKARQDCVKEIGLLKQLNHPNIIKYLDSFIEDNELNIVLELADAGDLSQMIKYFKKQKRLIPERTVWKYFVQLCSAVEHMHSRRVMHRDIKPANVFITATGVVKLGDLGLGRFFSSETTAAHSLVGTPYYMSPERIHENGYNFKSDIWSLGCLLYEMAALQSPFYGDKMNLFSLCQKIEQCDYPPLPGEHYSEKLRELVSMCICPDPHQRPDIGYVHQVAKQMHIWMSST

DYRK1B (human) = DYRK1B (human) (UniProt Q9Y463)
Sequence of DYRK1B (human) (Q9Y463 whole entry, looked up): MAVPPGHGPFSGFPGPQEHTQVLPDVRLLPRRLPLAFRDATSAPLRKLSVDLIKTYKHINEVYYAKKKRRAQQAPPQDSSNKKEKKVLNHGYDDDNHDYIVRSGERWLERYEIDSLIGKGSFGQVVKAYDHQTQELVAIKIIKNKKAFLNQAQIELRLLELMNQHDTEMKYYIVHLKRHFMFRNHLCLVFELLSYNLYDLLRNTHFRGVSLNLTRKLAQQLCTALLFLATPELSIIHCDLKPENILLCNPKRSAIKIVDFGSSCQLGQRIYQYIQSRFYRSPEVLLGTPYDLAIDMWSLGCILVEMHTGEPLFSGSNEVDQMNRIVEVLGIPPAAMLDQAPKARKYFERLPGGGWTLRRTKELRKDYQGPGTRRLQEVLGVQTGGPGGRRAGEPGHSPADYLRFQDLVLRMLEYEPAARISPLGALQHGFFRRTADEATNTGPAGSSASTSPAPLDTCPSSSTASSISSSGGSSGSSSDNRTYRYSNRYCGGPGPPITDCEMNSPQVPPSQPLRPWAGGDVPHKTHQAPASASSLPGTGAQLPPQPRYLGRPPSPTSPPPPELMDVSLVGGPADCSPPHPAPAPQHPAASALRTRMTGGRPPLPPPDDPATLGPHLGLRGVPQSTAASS

STK3 (human) = STK3 (human) (UniProt Q13188)
CSNK1G1 (human) = CSNK1G1 (human) (UniProt Q9HCP0)
PDGFRB (human) = PDGFRB (human) (UniProt P09619)
CDK9 CCNT1 (human) = CDK9 CCNT1 (human) (UniProt P50750+O60563)
Sequence of CDK9 CCNT1 (human) (O60563 whole entry, looked up): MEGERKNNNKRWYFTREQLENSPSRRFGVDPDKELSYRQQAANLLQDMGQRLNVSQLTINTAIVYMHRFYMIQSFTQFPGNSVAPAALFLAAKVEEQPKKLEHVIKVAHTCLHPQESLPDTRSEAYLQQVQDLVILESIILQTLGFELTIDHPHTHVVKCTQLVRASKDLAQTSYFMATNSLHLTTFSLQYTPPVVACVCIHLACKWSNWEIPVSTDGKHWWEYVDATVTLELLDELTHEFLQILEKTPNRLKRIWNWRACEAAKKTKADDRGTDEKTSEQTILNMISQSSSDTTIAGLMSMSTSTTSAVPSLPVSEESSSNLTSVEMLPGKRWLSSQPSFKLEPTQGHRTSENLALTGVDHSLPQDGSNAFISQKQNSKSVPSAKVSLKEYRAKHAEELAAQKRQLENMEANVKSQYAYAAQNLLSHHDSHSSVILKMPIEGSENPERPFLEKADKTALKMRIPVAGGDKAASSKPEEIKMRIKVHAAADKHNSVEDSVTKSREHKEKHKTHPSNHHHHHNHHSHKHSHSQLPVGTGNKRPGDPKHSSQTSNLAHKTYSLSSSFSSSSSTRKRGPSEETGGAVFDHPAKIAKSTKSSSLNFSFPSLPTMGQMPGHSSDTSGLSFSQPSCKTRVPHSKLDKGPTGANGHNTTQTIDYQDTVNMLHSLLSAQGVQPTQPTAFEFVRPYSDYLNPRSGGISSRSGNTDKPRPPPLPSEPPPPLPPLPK
Sequence of CDK9 CCNT1 (human) (P50750 whole entry, looked up): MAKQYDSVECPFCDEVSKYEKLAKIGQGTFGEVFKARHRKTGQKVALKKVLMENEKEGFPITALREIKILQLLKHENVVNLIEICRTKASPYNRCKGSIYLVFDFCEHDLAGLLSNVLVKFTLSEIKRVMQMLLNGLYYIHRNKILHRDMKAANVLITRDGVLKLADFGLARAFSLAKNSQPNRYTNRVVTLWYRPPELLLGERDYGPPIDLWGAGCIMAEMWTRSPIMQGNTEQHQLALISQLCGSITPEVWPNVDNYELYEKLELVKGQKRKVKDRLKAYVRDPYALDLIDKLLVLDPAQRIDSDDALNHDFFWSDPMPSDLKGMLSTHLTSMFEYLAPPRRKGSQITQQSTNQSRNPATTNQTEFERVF

ABL1 (human) = ABL1 (human) (UniProt P00519)
CDK6 CCND1 (human) = CDK6 CCND1 (human) (UniProt Q00534+P24385)
Sequence of CDK6 CCND1 (human) (P24385 whole entry, looked up): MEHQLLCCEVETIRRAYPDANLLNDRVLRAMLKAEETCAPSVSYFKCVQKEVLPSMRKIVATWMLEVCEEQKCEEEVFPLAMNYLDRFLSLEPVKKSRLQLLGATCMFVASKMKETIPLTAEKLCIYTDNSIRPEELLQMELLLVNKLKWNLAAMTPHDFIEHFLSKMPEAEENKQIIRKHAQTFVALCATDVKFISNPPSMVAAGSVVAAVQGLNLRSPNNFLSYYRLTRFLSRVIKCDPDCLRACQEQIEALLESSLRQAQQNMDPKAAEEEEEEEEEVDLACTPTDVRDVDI
Sequence of CDK6 CCND1 (human) (Q00534 whole entry, looked up): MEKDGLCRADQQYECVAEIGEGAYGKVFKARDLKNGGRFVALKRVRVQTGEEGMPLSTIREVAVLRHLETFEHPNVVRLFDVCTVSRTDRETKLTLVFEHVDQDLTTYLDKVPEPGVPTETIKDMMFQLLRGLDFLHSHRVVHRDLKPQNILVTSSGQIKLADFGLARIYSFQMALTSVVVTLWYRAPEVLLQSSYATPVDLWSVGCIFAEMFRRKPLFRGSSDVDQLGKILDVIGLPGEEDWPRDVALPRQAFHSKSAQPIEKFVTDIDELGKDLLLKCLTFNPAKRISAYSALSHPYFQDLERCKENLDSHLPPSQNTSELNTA

MAPKAPK5 (human) = MAPKAPK5 (human) (UniProt Q8IW41)
DAPK1 (human) = DAPK1 (human) (UniProt P53355)
Sequence of DAPK1 (human) (P53355 whole entry, looked up): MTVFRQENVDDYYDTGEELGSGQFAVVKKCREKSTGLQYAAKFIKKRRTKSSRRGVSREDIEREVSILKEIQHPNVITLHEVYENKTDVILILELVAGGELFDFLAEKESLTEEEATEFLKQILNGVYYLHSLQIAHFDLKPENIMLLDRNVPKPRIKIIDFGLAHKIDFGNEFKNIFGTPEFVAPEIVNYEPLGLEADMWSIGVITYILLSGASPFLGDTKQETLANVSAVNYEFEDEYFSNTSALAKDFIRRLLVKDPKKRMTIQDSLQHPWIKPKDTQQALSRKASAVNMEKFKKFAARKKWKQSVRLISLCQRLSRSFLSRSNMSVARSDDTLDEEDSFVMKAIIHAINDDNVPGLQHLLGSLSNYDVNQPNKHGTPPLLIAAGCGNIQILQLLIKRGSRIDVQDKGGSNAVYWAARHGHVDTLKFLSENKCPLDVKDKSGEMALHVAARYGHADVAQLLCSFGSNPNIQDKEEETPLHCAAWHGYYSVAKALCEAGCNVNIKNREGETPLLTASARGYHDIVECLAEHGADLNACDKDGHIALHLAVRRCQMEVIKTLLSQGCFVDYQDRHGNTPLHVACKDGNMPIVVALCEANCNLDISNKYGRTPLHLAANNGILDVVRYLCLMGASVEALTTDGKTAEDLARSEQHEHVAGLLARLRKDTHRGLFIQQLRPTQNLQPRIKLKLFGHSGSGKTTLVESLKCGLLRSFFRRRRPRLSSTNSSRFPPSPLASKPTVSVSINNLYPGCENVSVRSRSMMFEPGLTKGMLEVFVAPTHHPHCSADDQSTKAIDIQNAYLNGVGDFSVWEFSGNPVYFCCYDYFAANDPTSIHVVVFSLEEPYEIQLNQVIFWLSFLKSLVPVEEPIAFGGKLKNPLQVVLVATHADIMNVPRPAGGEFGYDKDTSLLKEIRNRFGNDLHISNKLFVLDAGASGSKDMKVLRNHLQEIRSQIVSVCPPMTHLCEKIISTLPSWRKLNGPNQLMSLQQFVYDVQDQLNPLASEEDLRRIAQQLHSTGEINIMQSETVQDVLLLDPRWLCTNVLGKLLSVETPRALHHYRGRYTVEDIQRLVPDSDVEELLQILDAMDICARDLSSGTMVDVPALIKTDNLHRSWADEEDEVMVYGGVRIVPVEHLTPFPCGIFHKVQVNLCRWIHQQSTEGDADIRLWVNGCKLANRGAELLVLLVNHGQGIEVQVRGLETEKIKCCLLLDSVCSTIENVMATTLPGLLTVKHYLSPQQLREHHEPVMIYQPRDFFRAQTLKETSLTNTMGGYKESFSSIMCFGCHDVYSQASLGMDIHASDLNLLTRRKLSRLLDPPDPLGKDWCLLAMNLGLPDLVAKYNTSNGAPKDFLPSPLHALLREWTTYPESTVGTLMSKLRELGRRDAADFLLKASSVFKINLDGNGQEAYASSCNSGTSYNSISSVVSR

SRMS (human) = SRMS (human) (UniProt Q9H3Y6)
TGFBR1 (human) = TGFBR1 (human) (UniProt P36897)
RPS6KA6 KD1 KD2 (human) = RPS6KA6 KD1 KD2 (human) (UniProt Q9UK32)
NEK1 (human) = NEK1 (human) (UniProt Q96PY6)
TYRO3 (human) = TYRO3 (human) (UniProt Q06418)
EPHA5 (human) = EPHA5 (human) (UniProt P54756)
EPHA7 (human) = EPHA7 (human) (UniProt Q15375)
CAMK1G (human) = CAMK1G (human) (UniProt Q96NX5)
BRSK1 (human) = BRSK1 (human) (UniProt Q8TDC3)
CDK4 CCND3 (human) = CDK4 CCND3 (human) (UniProt P30281+P11802)
DCLK2 (human) = DCLK2 (human) (UniProt Q8N568)
IKBKB (human) = IKBKB (human) (UniProt O14920)
RPS6KA1 KD1 KD2 (human) = RPS6KA1 KD1 KD2 (human) (UniProt Q15418)
PRKCH (human) = PRKCH (human) (UniProt P24723)
SRPK1 (human) = SRPK1 (human) (UniProt Q96SB4)
FGR (human) = FGR (human) (UniProt P09769)
SGK2 (human) = SGK2 (human) (UniProt Q9HBY8)
NEK4 (human) = NEK4 (human) (UniProt P51957)
TXK (human) = TXK (human) (UniProt P42681)
Sequence of TXK (human) (P42681 whole entry, looked up): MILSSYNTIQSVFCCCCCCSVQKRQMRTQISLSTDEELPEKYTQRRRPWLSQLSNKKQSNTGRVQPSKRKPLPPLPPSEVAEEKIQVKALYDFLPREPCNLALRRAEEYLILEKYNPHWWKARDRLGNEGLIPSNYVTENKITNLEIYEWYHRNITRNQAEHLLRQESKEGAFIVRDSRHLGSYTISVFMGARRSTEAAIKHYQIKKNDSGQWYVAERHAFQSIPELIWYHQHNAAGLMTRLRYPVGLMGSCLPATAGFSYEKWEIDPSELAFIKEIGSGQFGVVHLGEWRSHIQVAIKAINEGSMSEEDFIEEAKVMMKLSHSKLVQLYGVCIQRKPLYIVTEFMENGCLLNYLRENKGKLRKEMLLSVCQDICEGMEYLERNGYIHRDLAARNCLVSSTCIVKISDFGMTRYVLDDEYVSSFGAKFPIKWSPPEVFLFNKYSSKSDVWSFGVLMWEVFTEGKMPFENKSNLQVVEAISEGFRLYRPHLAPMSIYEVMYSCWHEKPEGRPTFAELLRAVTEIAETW

SRPK3 (human) = SRPK3 (human) (UniProt Q9UPE1)
BLK (human) = BLK (human) (UniProt P51451)
MAPK12 (human) = MAPK12 (human) (UniProt P53778)

Sequence of CSNK2A1 (human) (P68400 whole entry, looked up): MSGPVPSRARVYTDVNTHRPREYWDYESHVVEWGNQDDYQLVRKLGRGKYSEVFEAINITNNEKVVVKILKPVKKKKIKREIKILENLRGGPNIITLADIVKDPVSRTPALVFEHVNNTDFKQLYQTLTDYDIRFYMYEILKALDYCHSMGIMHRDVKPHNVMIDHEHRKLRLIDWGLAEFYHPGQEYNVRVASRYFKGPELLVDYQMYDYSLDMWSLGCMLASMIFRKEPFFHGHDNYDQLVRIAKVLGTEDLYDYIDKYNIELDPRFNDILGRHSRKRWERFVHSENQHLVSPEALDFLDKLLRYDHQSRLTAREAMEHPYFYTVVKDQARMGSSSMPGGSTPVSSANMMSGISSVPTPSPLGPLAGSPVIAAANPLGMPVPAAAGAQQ

Compound | residual activity (CSNK2A1 (human)) | residual activity (RPS6KA4 KD2 (human)) | residual activity (ACVR1 (human)) | residual activity (GRK5 (human)) | residual activity (MAPK1 (human)) | residual activity (DYRK4 (human)) | residual activity (ADRBK2 (human)) | residual activity (NEK6 (human)) | residual activity (STK3 (human)) | residual activity (CSNK1G1 (human)) | residual activity (PDGFRB (human)) | residual activity (ABL1 (human)) | residual activity (DAPK1 (human)) | residual activity (SRMS (human)) | residual activity (TGFBR1 (human)) | residual activity (RPS6KA6 KD1 KD2 (human)) | residual activity (NEK1 (human)) | residual activity (TYRO3 (human)) | residual activity (EPHA5 (human)) | residual activity (EPHA7 (human)) | also measured
Nc1nccc(-c2c(-c3ccc(F)cc3)ncn2C2CCNCC2)n1 | 94.7% | 98.7% | 86.5% | 103% | 96.6% | 99.3% | 97.6% | 104% | 103% | 83.1% | 98.7% | 101% | 88.2% | 97.5% | 102% | 109% | 100% | 96.9% | 97.8% | 94% | residual activity (AKT3 (human)): 92.6%; residual activity (CDK1 CCNB1 (human)): 96.8%; residual activity (DYRK1B (human)): 100%; residual activity (CDK9 CCNT1 (human)): 87.1%; residual activity (CDK6 CCND1 (human)): 101%; residual activity (MAPKAPK5 (human)): 94%; residual activity (CAMK1G (human)): 99.3%; residual activity (BRSK1 (human)): 99.7%; residual activity (CDK4 CCND3 (human)): 104%; residual activity (DCLK2 (human)): 99.9%; residual activity (IKBKB (human)): 104%; residual activity (RPS6KA1 KD1 KD2 (human)): 96.7%; residual activity (PRKCH (human)): 91.9%; residual activity (SRPK1 (human)): 103%; residual activity (FGR (human)): 95.9%; residual activity (SGK2 (human)): 96.9%; residual activity (NEK4 (human)): 99.5%; residual activity (TXK (human)): 99.1%; residual activity (SRPK3 (human)): 99.3%; residual activity (BLK (human)): 102%
CC(C)c1nn(-c2c(Cl)cccc2Cl)c2nc(Cc3ccc(OCCO)cc3)nc(O)c12 | 88.8% | 95.3% | 94.7% | 108% | 91.7% | 96.7% | 87.9% | 105% | 93.5% | 101% | 98.9% | 95.6% | 99.5% | 91.5% | 98% | 84.8% | 90.9% | 97.8% | 110% | 97.9% | residual activity (CDK1 CCNB1 (human)): -1.2%; residual activity (DYRK1B (human)): 99.9%; residual activity (CDK9 CCNT1 (human)): 22.7%; residual activity (CDK6 CCND1 (human)): 19.8%; residual activity (CAMK1G (human)): 100%; residual activity (BRSK1 (human)): 91.3%; residual activity (CDK4 CCND3 (human)): 45.6%; residual activity (DCLK2 (human)): 95.9%; residual activity (IKBKB (human)): 103%; residual activity (RPS6KA1 KD1 KD2 (human)): 91.3%; residual activity (PRKCH (human)): 87.4%; residual activity (SRPK1 (human)): 97.4%; residual activity (MAPK12 (human)): 103%; residual activity (FGR (human)): 92%; residual activity (SGK2 (human)): 101%; residual activity (NEK4 (human)): 96.3%; residual activity (TXK (human)): 101%; residual activity (SRPK3 (human)): 92.9%; residual activity (BLK (human)): 98.8%
COc1ccc(CNC(=O)Nc2ncc([N+](=O)[O-])s2)cc1 | 94.2% | 101% | 99.5% | 104% | 104% | 97.7% | 112% | 100% | 92.6% | 97.8% | 125% | 96.8% | 105% | 93.3% | 95.8% | 99.8% | 94.3% | 100% | 117% | 96.6% | residual activity (AKT3 (human)): 95.9%; residual activity (CDK1 CCNB1 (human)): 85.1%; residual activity (DYRK1B (human)): 99.4%; residual activity (CDK9 CCNT1 (human)): 88.1%; residual activity (CDK6 CCND1 (human)): 98.6%; residual activity (MAPKAPK5 (human)): 90.1%; residual activity (CAMK1G (human)): 99.6%; residual activity (BRSK1 (human)): 102%; residual activity (CDK4 CCND3 (human)): 94.4%; residual activity (DCLK2 (human)): 99.2%; residual activity (IKBKB (human)): 94.9%; residual activity (RPS6KA1 KD1 KD2 (human)): 96.4%; residual activity (PRKCH (human)): 64.1%; residual activity (SRPK1 (human)): 92.9%; residual activity (FGR (human)): 92.4%; residual activity (SGK2 (human)): 99.5%; residual activity (NEK4 (human)): 91%; residual activity (TXK (human)): 96.9%; residual activity (SRPK3 (human)): 100%
CC(C)[C@H](CO)Nc1nc(Nc2cc(N)cc(Cl)c2)c2ncn(C(C)C)c2n1 | 99.3% | 89.3% | 99.4% | 101% | 95.4% | 91.6% | 97.1% | 111% | 70% | 26.4% | 98.1% | 45.5% | 95.3% | 96.8% | 103% | 46.1% | 81.5% | 103% | 64% | 80.2% | residual activity (DYRK1B (human)): 38.3%; residual activity (MAPKAPK5 (human)): 95.8%; residual activity (CAMK1G (human)): 105%; residual activity (BRSK1 (human)): 93.1%; residual activity (DCLK2 (human)): 105%; residual activity (IKBKB (human)): 104%; residual activity (RPS6KA1 KD1 KD2 (human)): 37.2%; residual activity (PRKCH (human)): 99.4%; residual activity (SRPK1 (human)): 62.1%; residual activity (FGR (human)): 15%; residual activity (SGK2 (human)): 121%; residual activity (NEK4 (human)): 80.2%; residual activity (TXK (human)): 42.5%; residual activity (SRPK3 (human)): 37.7%; residual activity (BLK (human)): 79.6%
O=C1Cc2c([nH]c3ccc(Br)cc23)-c2ccccc2N1 | 79.1% | 108% | 162% | 97% | 90.5% | 97.2% | 109% | 100% | 83.2% | 102% | 93.2% | 82.6% | 101% | 105% | 97.7% | 95.9% | 95.4% | 97.7% | 96.6% | 101% | residual activity (AKT3 (human)): 105%; residual activity (CDK1 CCNB1 (human)): 80.6%; residual activity (CDK9 CCNT1 (human)): 31.3%; residual activity (CDK6 CCND1 (human)): 83.4%; residual activity (MAPKAPK5 (human)): 94.6%; residual activity (CAMK1G (human)): 97.4%; residual activity (BRSK1 (human)): 60.5%; residual activity (CDK4 CCND3 (human)): 89%; residual activity (DCLK2 (human)): 94.6%; residual activity (IKBKB (human)): 101%; residual activity (RPS6KA1 KD1 KD2 (human)): 90.8%; residual activity (PRKCH (human)): 95.3%; residual activity (SRPK1 (human)): 99.6%; residual activity (FGR (human)): 74.4%; residual activity (SGK2 (human)): 98.9%; residual activity (NEK4 (human)): 98.9%; residual activity (TXK (human)): 82.6%; residual activity (SRPK3 (human)): 100%

From the kinase profiling compilation of Christmann-Franck et al. (2016)
